Reference: patent publication US10570184B2, “GLP-1/glucagon receptor co-agonists for medical use” (Novo Nordisk A/S, priority 2014, dated 2020)
Starred links: 1 amine or outer side, 2 acyl side, 3 side chain; linkers in the order of their positions; H or OH if unused. Non-standard residues stand in square brackets, D forms with d. Residues, ends and D or L forms follow the SMILES beside them. Groups on a side chain read outwards from the residue. *: point of attachment. C18 diacid = O=C(O)CCCCCCCCCCCCCCCCC(=O)*; γGlu = O=C(O)[C@H](CCC(=O)[*:2])N[*:1]; Ac4c = NC1(C(=O)O)CCC1; AEEA = NCCOCCOCC(=O)O; Aib = CC(C)(N)C(=O)O

Key:
human GLP-1 receptor = biological target: T1, human GLP-1 receptor (Homo sapiens, UniProt P43220); assay: Assay (I)(a) GLP-1 receptor activation, CRE luciferase reporter gene assay in BHK cells; format: cell-based; conditions: without presence of serum albumin; read-out: GLP-1R EC50 (pM) [Assay (I)(a)]
T1 construct: expressed in transfected cells; host or cells: membranes of BHK cells (parent BHKTS13), clone FCW467-12A
T1 sequence (P43220 24-463): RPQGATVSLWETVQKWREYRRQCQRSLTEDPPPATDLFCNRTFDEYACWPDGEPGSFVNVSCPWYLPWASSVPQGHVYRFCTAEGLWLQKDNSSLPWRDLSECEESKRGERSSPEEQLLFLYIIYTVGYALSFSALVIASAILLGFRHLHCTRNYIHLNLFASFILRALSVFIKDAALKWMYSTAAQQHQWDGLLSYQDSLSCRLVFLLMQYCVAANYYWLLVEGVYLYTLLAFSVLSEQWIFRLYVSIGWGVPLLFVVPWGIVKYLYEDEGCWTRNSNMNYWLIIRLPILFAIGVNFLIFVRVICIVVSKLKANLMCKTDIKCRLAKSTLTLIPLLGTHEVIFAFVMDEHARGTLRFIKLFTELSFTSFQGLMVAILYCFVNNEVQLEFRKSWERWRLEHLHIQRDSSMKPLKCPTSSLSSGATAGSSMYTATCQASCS
Method in brief: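 Stable BHK clone expressing human GLP-1 receptor with CRE-driven firefly luciferase, 5×10EE3 cells/well in medium with 2% ovalbumin and 0.2% Pluronic F-68. Compounds at 1×10EE-13 to 1×10EE-6 M final, 3 h at 37° C.; luminescence read, EC50 (pM) from four-parameter fit.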

[1] = Assay (III) ThT fibrillation assay for physical stability; format: physicochemical; conditions: 250 μM in 10 mM HEPES buffer, 37° C., shaking 960 rpm
Method in brief: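 Glucagon derivative at 250 μM in 10 mM HEPES pH 7.5 with 1 μM ThT was incubated at 37 °C under 960 rpm orbital shaking. Fluorescence (ex 444/em 485 nm) was read every 20 min and fitted for lag time (t0−2τ) and kapp (1/τ). Recovery was soluble peptide after centrifugation/filtration, by RP-HPLC, as percent of initial.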

Row | EC50 (human GLP-1 receptor) [pM] | ThT Assay Lag time (h) [Assay (III), pH 7.5] [1] [h] | SMILES
1 | 2 | 23.0 | CC[C@H](C)[C@H](NC(=O)[C@H](CC(C)C)NC(=O)[C@H](Cc1c[nH]c2ccccc12)NC(=O)[C@H](CCC(N)=O)NC(=O)[C@@H](NC(=O)[C@H](Cc1ccccc1)NC(=O)[C@H](CCC(=O)O)NC(=O)[C@H](CCCNC(=N)N)NC(=O)[C@H](C)NC(=O)[C@H](CCCNC(=N)N)NC(=O)[C@H](CCCNC(=N)N)NC(=O)[C@H](CO)NC(=O)[C@H](CCC(=O)O)NC(=O)[C@H](CC(C)C)NC(=O)[C@H](Cc1ccc(O)cc1)NC(=O)[C@H](CCCCN)NC(=O)[C@H](CO)NC(=O)[C@H](CC(C)C)NC(=O)[C@H](CC(=O)O)NC(=O)[C@H](CO)NC(=O)[C@@H](NC(=O)[C@H](Cc1ccccc1)NC(=O)[C@@H](NC(=O)CNC(=O)[C@H](CCC(N)=O)NC(=O)C(C)(C)NC(=O)[C@@H](N)Cc1c[nH]cn1)[C@@H](C)O)[C@@H](C)O)C(C)C)C(=O)N[C@@H](CCCCNC(=O)CC[C@H](NC(=O)CC[C@H](NC(=O)COCCOCCNC(=O)COCCOCCNC(=O)CC[C@H](NC(=O)CC[C@H](NC(=O)CCCCCCCCCCCCCCCCC(=O)O)C(=O)O)C(=O)O)C(=O)O)C(=O)O)C(=O)N[C@H](C(N)=O)[C@@H](C)O [Chem. 25, N^ε28-[(4S)-4-carboxy-4-[[(4S)-4-carboxy-4-[[2-[2-[2-[[2-[2-[2-[[(4S)-4-carboxy-4-[[(4S)-4-carboxy-4-(17-carboxyheptadecanoylamino)butanoyl]amino]butanoyl]amino]ethoxy]ethoxy]acetyl]amino]ethoxy]ethoxy]acetyl]amino]butanoyl]amino]butanoyl]-[Aib2,Leu10,Glu15,Arg20,Glu21,Ile27,Lys28]-Glucagon amide] (H-H[Aib]QGTFTSDLSKYLESRRAREFVQWLIK([γGlu-γGlu-AEEA-AEEA-γGlu-γGlu-C18 diacid])T-NH2; N-terminus assumed)
2 | 2 | 45.0 | CC[C@H](C)[C@H](NC(=O)[C@H](CC(=O)O)NC(=O)[C@H](CO)NC(=O)[C@@H](NC(=O)[C@H](Cc1ccccc1)NC(=O)[C@@H](NC(=O)CNC(=O)[C@H](CCC(N)=O)NC(=O)C1(NC(=O)[C@@H](N)Cc2c[nH]cn2)CCC1)[C@@H](C)O)[C@@H](C)O)C(=O)N[C@@H](CO)C(=O)N[C@@H](CCCCN)C(=O)N[C@@H](Cc1ccc(O)cc1)C(=O)N[C@@H](CC(C)C)C(=O)N[C@@H](CCC(=O)O)C(=O)N[C@@H](CO)C(=O)N[C@@H](CCCNC(=N)N)C(=O)N[C@@H](CCCNC(=N)N)C(=O)N[C@@H](C)C(=O)N[C@@H](CCCNC(=N)N)C(=O)N[C@@H](CCC(=O)O)C(=O)N[C@@H](Cc1ccccc1)C(=O)N[C@H](C(=O)N[C@@H](CCC(N)=O)C(=O)N[C@@H](Cc1c[nH]c2ccccc12)C(=O)N[C@@H](CC(C)C)C(=O)N[C@H](C(=O)N[C@@H](CCCCNC(=O)CC[C@H](NC(=O)CC[C@H](NC(=O)COCCOCCNC(=O)COCCOCCNC(=O)CC[C@H](NC(=O)CC[C@H](NC(=O)CCCCCCCCCCCCCCCCC(=O)O)C(=O)O)C(=O)O)C(=O)O)C(=O)O)C(=O)N[C@H](C(N)=O)[C@@H](C)O)[C@@H](C)CC)C(C)C [Chem. 26, N^ε28-[(4S)-4-carboxy-4-[[(4S)-4-carboxy-4-[[2-[2-[2-[[2-[2-[2-[[(4S)-4-carboxy-4-[[(4S)-4-carboxy-4-(17-carboxyheptadecanoylamino)butanoyl]amino]butanoyl]amino]ethoxy]ethoxy]acetyl]amino]ethoxy]ethoxy]acetyl]amino]butanoyl]amino]butanoyl]-[Acb2,Ile10,Glu15,Arg20,Glu21,Ile27,Lys28]-Glucagon amide] (H-H[Ac4c]QGTFTSDISKYLESRRAREFVQWLIK([γGlu-γGlu-AEEA-AEEA-γGlu-γGlu-C18 diacid])T-NH2; N-terminus assumed)

The next lines start with the compound.

Row | SMILES | EC50 (human GLP-1 receptor) [pM] | ThT Assay Lag time (h) [Assay (III), pH 7.5] [1] [h]
3 | CC[C@H](C)[C@H](NC(=O)[C@H](CC(C)C)NC(=O)[C@H](Cc1c[nH]c2ccccc12)NC(=O)[C@H](CCC(N)=O)NC(=O)[C@@H](NC(=O)[C@H](Cc1ccccc1)NC(=O)[C@H](CC(=O)O)NC(=O)[C@H](CCCNC(=N)N)NC(=O)[C@H](C)NC(=O)[C@H](CCCNC(=N)N)NC(=O)[C@H](CCCNC(=N)N)NC(=O)[C@H](C)NC(=O)[C@H](CC(=O)O)NC(=O)[C@H](CC(C)C)NC(=O)[C@H](Cc1ccc(O)cc1)NC(=O)[C@H](CCCCN)NC(=O)[C@H](CO)NC(=O)[C@H](CC(C)C)NC(=O)[C@H](CC(=O)O)NC(=O)[C@H](CO)NC(=O)[C@@H](NC(=O)[C@H](Cc1ccccc1)NC(=O)[C@@H](NC(=O)CNC(=O)[C@H](CCC(N)=O)NC(=O)C(C)(C)NC(=O)[C@@H](N)Cc1c[nH]cn1)[C@@H](C)O)[C@@H](C)O)C(C)C)C(=O)N[C@@H](CC(N)=O)C(=O)N[C@@H](CCCCNC(=O)CC[C@H](NC(=O)CC[C@H](NC(=O)COCCOCCNC(=O)COCCOCCNC(=O)CC[C@H](NC(=O)CCCCCCCCCCCCCCCCC(=O)O)C(=O)O)C(=O)O)C(=O)O)C(N)=O [Chem. 20, N^ε29-[(4S)-4-carboxy-4-[[(4S)-4-carboxy-4-[[2-[2-[2-[[2-[2-[2-[[(4S)-4-carboxy-4-(17-carboxyheptadecanoylamino)butanoyl]amino]ethoxy]ethoxy]acetyl]amino]ethoxy]ethoxy]acetyl]amino]butanoyl]amino]butanoyl]-[Aib2,Leu10,Ala16,Arg20,Ile27,Lys29]-Glucagon amide] (H-H[Aib]QGTFTSDLSKYLDARRARDFVQWLINK([γGlu-γGlu-AEEA-AEEA-γGlu-C18 diacid])-NH2; N-terminus assumed) | 4 | 45.0
4 | CC[C@H](C)[C@H](NC(=O)[C@H](CC(C)C)NC(=O)[C@H](Cc1c[nH]c2ccccc12)NC(=O)[C@H](CCC(N)=O)NC(=O)[C@@H](NC(=O)[C@H](Cc1ccccc1)NC(=O)[C@H](CCC(=O)O)NC(=O)[C@H](CCCNC(=N)N)NC(=O)[C@H](C)NC(=O)[C@H](CCCNC(=N)N)NC(=O)[C@H](CCCNC(=N)N)NC(=O)[C@H](C)NC(=O)[C@H](CC(=O)O)NC(=O)[C@H](CC(C)C)NC(=O)[C@H](Cc1ccc(O)cc1)NC(=O)[C@H](CCCCN)NC(=O)[C@H](CO)NC(=O)[C@H](CC(C)C)NC(=O)[C@H](CC(=O)O)NC(=O)[C@H](CO)NC(=O)[C@@H](NC(=O)[C@H](Cc1ccccc1)NC(=O)[C@@H](NC(=O)CNC(=O)[C@H](CCC(N)=O)NC(=O)C(C)(C)NC(=O)[C@@H](N)Cc1c[nH]cn1)[C@@H](C)O)[C@@H](C)O)C(C)C)C(=O)N[C@@H](CC(N)=O)C(=O)N[C@@H](CCCCNC(=O)CC[C@H](NC(=O)CC[C@H](NC(=O)COCCOCCNC(=O)COCCOCCNC(=O)CC[C@H](NC(=O)CCCCCCCCCCCCCCCCC(=O)O)C(=O)O)C(=O)O)C(=O)O)C(N)=O [Chem. 21, N^ε29-[(4S)-4-carboxy-4-[[(4S)-4-carboxy-4-[[2-[2-[2-[[2-[2-[2-[[(4S)-4-carboxy-4-(17-carboxyheptadecanoylamino)butanoyl]amino]ethoxy]ethoxy]acetyl]amino]ethoxy]ethoxy]acetyl]amino]butanoyl]amino]butanoyl]-[Aib2,Leu10,Ala16,Arg20,Glu21,Ile27,Lys29]-Glucagon amide] (H-H[Aib]QGTFTSDLSKYLDARRAREFVQWLINK([γGlu-γGlu-AEEA-AEEA-γGlu-C18 diacid])-NH2; N-terminus assumed) | 3 | 45.0
5 | CC[C@H](C)[C@H](NC(=O)[C@H](CC(C)C)NC(=O)[C@H](Cc1c[nH]c2ccccc12)NC(=O)[C@H](C)NC(=O)[C@@H](NC(=O)[C@H](Cc1ccccc1)NC(=O)[C@H](CC(=O)O)NC(=O)[C@H](CCCNC(=N)N)NC(=O)[C@H](C)NC(=O)[C@H](CCCNC(=N)N)NC(=O)[C@H](CCCNC(=N)N)NC(=O)[C@H](CC(C)C)NC(=O)[C@H](CC(=O)O)NC(=O)[C@H](CC(C)C)NC(=O)[C@H](Cc1ccc(O)cc1)NC(=O)[C@H](CCCCN)NC(=O)[C@H](CO)NC(=O)[C@H](CC(C)C)NC(=O)[C@H](CC(=O)O)NC(=O)[C@H](CO)NC(=O)[C@@H](NC(=O)[C@H](Cc1ccccc1)NC(=O)[C@@H](NC(=O)CNC(=O)[C@H](CCC(N)=O)NC(=O)C(C)(C)NC(=O)[C@@H](N)Cc1c[nH]cn1)[C@@H](C)O)[C@@H](C)O)C(C)C)C(=O)N[C@@H](CC(N)=O)C(=O)N[C@@H](CCCCNC(=O)CC[C@H](NC(=O)CC[C@H](NC(=O)COCCOCCNC(=O)COCCOCCNC(=O)CC[C@H](NC(=O)CCCCCCCCCCCCCCCCC(=O)O)C(=O)O)C(=O)O)C(=O)O)C(N)=O [Chem. 24, N^ε29-[(4S)-4-carboxy-4-[[(4S)-4-carboxy-4-[[2-[2-[2-[[2-[2-[2-[[(4S)-4-carboxy-4-(17-carboxyheptadecanoylamino)butanoyl]amino]ethoxy]ethoxy]acetyl]amino]ethoxy]ethoxy]acetyl]amino]butanoyl]amino]butanoyl]-[Aib2,Leu10,Leu16,Arg20,Ala24,Ile27,Lys29]-Glucagon amide] (H-H[Aib]QGTFTSDLSKYLDLRRARDFVAWLINK([γGlu-γGlu-AEEA-AEEA-γGlu-C18 diacid])-NH2; N-terminus assumed) | 3 | 45.0
